# Data reported in patent US20240299376A1, “METHOD OF TREATING A CONDITION USING A […] EFFECTIVE DOSE OF 1-(1-OXO-1,2-DIHYDROISOQUINOLIN-5-YL)-5-(TRIFLUOROMETHYL)-N-(2-(TRIFLUOROMETHYL)PYRIDIN-4-YL)-1H-PYRAZOLE-4-CARBOXAMIDE” (Janssen Pharmaceutica NV, priority 2021, published 2024).
# Where “and” joins values, the source holds several entries; their conditions need not be identical. Equal entries are not always repeated. Entries after “also recorded” stand apart in the source; their conditions may differ. Where two headings read alike, the source gives them in different places. Marks after values point to notes of the source that are not given here.
# How the values were obtained:
# [1] = test system: IL-6 secretion by OCI-LY3 ABC-DLBCL cells; assay: IL-6 secretion assay (MesoScale Discovery); assay type: cell-based; conditions: Homo sapiens; supernatants of OCI-LY3 cells, 16 independent experiments
# Method: NF-κB signaling regulates the secretion of multiple cytokines, including interleukin (IL)-6 and IL-10. Libermann T A et al. Mol Cell Biol. 1990; 10(6):3155-3162; and Cao S, et al. J Biol Chem. 2006; 281(36):26041-26050. Secretion of the cytokines IL-6 and IL-10 by OCI-LY3 ABC-DLBCL cells was measured using a MesoScale Discovery (MSD) assay.
# [2] = FIH study 67856633LYM1001 plasma pharmacokinetics; assay type: in vivo, human; conditions: for AUC: read-out: AUCτ
# Text: The study consists of a dose escalation phase (Part 1), to determine the recommended Phase 2 dose(s) (RP2D[s]), followed by an expansion phase at the RP2D(s) (Part 2). The dose escalation phase is supported using an adaptive dose escalation strategy guided by the modified continual reassessment method (mCRM) based on a Bayesian Logistic Regression Model (BLRM) with escalation with overdose control (EWOC) principle. The mCRM design allows the use of all cumulative dose-limiting toxicities (DLT) data up to the current dose cohort.
# In Part 1, subjects were enrolled in cohorts of daily oral doses at 50 mg, 100 mg, 200 mg (1×200 mg or 4×50 mg), 300 mg (3×100 mg or 6×50 mg), 400 mg (2×200 mg or 8×50 mg), and 600 mg (3×200 mg), and loading dosing cohorts—400 mg loading dose once daily for 14 days, followed by 300 mg once daily, and 300 mg loading dose twice daily for 7 days followed by 300 mg once daily. In Part 2, subjects received daily oral doses of 300 mg.
# In Part 1, PK data were available in subjects receiving doses of 50 mg (1×50 mg), 100 mg (2×50 mg), 200 mg (4×50 mg or 1×200 mg), 300 mg (6×50 mg or 3×100 mg), 400 mg (8×50 mg or 2×200 mg), and 600 mg (3×200 mg). Pharmacokinetic data were also available from the loading dose regimens of 400 mg (8×50 mg) loading dose once daily for 14 days followed by 300 mg (6×50 mg) once daily, and 300 mg (6×50 mg) loading dose twice daily for 7 days followed by 300 mg (6×50 mg) once daily.
# [3] = Cycle 1 Day 1, 200 mg capsule, cohort 3 × 200 mg, individual values, N = 2, listed as JNJ-67856633
# [4] = Cycle 2 Day 1, 50 mg capsule, cohort 6 × 50 mg (300 mg QD), mean, listed as JNJ-67856633
# [5] = Cycle 2 Day 1, 200 mg capsule, cohort 200 mg, individual values, N = 2, listed as JNJ-67856633
# [6] = Cycle 2 Day 1, 200 mg capsule, cohort 3 × 200 mg, individual values, N = 2, listed as JNJ-67856633
# [7] = Cycle 2 Day 1, cohort 6 × 50 mg BID > QD, individual values, N = 2, listed as JNJ-67856633
# [8] = Cycle 2 Day 1 / Cycle 1 Day 1, 50 mg capsule, cohort 50 mg, mean
# [9] = Cycle 2 Day 1 / Cycle 1 Day 1, cohort 2 × 50 mg, mean
# [10] = Cycle 2 Day 1 / Cycle 1 Day 1, cohort 2 × 200 mg food adlib, mean
# [11] = Cycle 2 Day 1 / Cycle 1 Day 1, cohort 2 × 200 mg, mean
# [12] = Cycle 2 Day 1 / Cycle 1 Day 1, cohort 3 × 200 mg, individual values, listed as JNJ-67856633
# [13] = Cycle 2 Day 1 / Cycle 1 Day 1, cohort 4 × 50 mg, mean
# [14] = Cycle 2 Day 1 / Cycle 1 Day 1, cohort 6 × 50 mg, mean
# [15] = Cycle 2 Day 1 / Cycle 1 Day 1, cohort 8 × 50 mg > 6 × 50 mg, mean
# [16] = Cycle 2 Day 1 / Cycle 1 Day 1, cohort 8 × 50 mg, mean
smiles,measurement,setting,value
"O=C(Nc1ccnc(C(F)(F)F)c1)c1cnn(-c2cccc3c(=O)[nH]ccc23)c1C(F)(F)F [Compound A, 1-(1-oxo-1,2-dihydroisoquinolin-5-yl)-5-(trifluoromethyl)-N-[2-(trifluoromethyl)pyridin-4-yl]-1H-pyrazole-4-carboxamide]",IC50,[1],114 ± 41 nM
same,AUCτ,"[2]; Cycle 1 Day 1, 50 mg capsule, cohort 6 × 50 mg (300 mg QD), mean, n = 9, listed as JNJ-67856633",152^c μg · h/mL
same,Cmax,"[2]; Cycle 1 Day 1, 50 mg capsule, cohort 6 × 50 mg (300 mg QD), mean, listed as JNJ-67856633",8.81 µg/mL
same,Tmax,"[2]; Cycle 1 Day 1, 200 mg capsule, cohort 3 × 200 mg, individual values, N = 2","3.00, 3.00 h"
same,AUCτ,[2]; [3],76.6 µg·h/mL
same,Cmax,[2]; [3],4.50 µg/mL
same,Cmin,"[2]; Cycle 2 Day 1, 50 mg capsule, cohort 50 mg, mean",6.85 µg/mL
same,Cmin,"[2]; Cycle 2 Day 1, 50 mg capsule, cohort 2 × 50 mg, mean",15.6 µg/mL
same,Cmin,"[2]; Cycle 2 Day 1, 50 mg capsule, cohort 4 × 50 mg, Subject 100032 excluded, mean",30.4^e μg/mL
same,Cmin,"[2]; Cycle 2 Day 1, 50 mg capsule, cohort 6 × 50 mg (300 mg QD), mean",39.5 µg/mL
same,AUCτ,[2]; [4],1144 µg·h/mL
same,Cmax,[2]; [4],55.2 µg/mL
same,Cmin,"[2]; Cycle 2 Day 1, 50 mg capsule, cohort 8 × 50 mg, mean",55.6 µg/mL
same,Cmax,[2]; [5],14.5 µg/mL
same,Cmin,[2]; [5],"15.5, μg/mL and 11.4 μg/mL"
same,Tmax,[2]; [5],0.5 h
same,Cmin,"[2]; Cycle 2 Day 1, 200 mg capsule, cohort 2 × 200 mg food adlib, mean",33.3 µg/mL
same,Cmin,"[2]; Cycle 2 Day 1, 200 mg capsule, cohort 2 × 200 mg, mean",30.7 µg/mL
same,AUCτ,[2]; [6],458 µg·h/mL and 1811 µg·h/mL
same,Cmax,[2]; [6],"21.2, μg/mL and 98.6 μg/mL"
same,Cmin,[2]; [6],13.5 µg/mL and 71.2 µg/mL
same,Tmax,[2]; [6],0.00 h and 0.50 h
same,Cmax,"[2]; Cycle 2 Day 1, cohort 6 × 50 mg BID > QD (300 mg BID 7 days then 300 mg QD), individual values, N = 2",about 29.2 μg/mL; also recorded: about 67 μg/mL
same,Cmax,"[2]; Cycle 2 Day 1, cohort 6 × 50 mg BID > QD (300 mg BID 7 days then 300 mg QD), individual values, N = 2, listed as JNJ-67856633","29.2, μg/mL and 67.0 μg/mL"
same,AUCτ,"[2]; Cycle 2 Day 1, cohort 6 × 50 mg BID > QD, individual values, N = 2",about 651 μg · h/mL; also recorded: about 1406 μg · h/mL
same,AUCτ,[2]; [7],651 µg·h/mL and 1406 µg·h/mL
same,Cmin,[2]; [7],"26.1, μg/mL and 50.6 μg/mL"
same,Tmax,[2]; [7],"3.00, 3.00 h"
same,Cmin,"[2]; Cycle 2 Day 1, cohort 8 × 50 mg > 6 × 50 mg, Subject 100070 excluded, mean",55.8^g μg/mL
same,ARAUC,[2]; [8],8.37
same,ARCmax,[2]; [8],7.30
same,ARAUC,"[2]; Cycle 2 Day 1 / Cycle 1 Day 1, 200 mg capsule, cohort 200 mg",5.51^i
same,ARCmax,"[2]; Cycle 2 Day 1 / Cycle 1 Day 1, 200 mg capsule, cohort 200 mg, individual values, listed as JNJ-67856633","4.81, and 3.21"
same,ARAUC,[2]; [9],7.80
same,ARCmax,[2]; [9],6.56
same,ARAUC,[2]; [10],12.7
same,ARCmax,[2]; [10],12.0
same,ARAUC,[2]; [11],9.35
same,ARCmax,[2]; [11],7.40
same,ARAUC,[2]; [12],3.73 and 23.7
same,ARCmax,[2]; [12],2.72 and 21.9
same,ARAUC,[2]; [13],8.10
same,ARCmax,[2]; [13],7.32
same,ARCmax,"[2]; Cycle 2 Day 1 / Cycle 1 Day 1, cohort 6 × 50 mg BID > QD",10.4^j
same,ARAUC,[2]; [14],8.50
same,ARCmax,[2]; [14],7.32
same,ARAUC,[2]; [15],"9.80^g, h"
same,ARCmax,[2]; [15],7.7^g
same,ARAUC,[2]; [16],12.4^f
same,ARCmax,[2]; [16],11.3^f
same,AUC,"[2]; human, plasma, oral, 50 mg, Cycle 1 Day 1, 50 mg capsule, cohort 50 mg, mean",29.1 µg·h/mL
same,Cmax,"[2]; human, plasma, oral, 50 mg, Cycle 1 Day 1, 50 mg capsule, cohort 50 mg, mean, read-out: Cmax",1.6 µg/mL
same,Tmax,"[2]; human, plasma, oral, 50 mg, Cycle 1 Day 1, 50 mg capsule, cohort 50 mg, median, read-out: Tmax",3 h
same,AUC,"[2]; human, plasma, oral, 50 mg, Cycle 2 Day 1, 50 mg capsule, cohort 50 mg, mean",180 µg·h/mL
same,Cmax,"[2]; human, plasma, oral, 50 mg, Cycle 2 Day 1, 50 mg capsule, cohort 50 mg, mean, read-out: Cmax",8.74 µg/mL
same,Tmax,"[2]; human, plasma, oral, 50 mg, Cycle 2 Day 1, 50 mg capsule, cohort 50 mg, median, read-out: Tmax",2 h
same,AUC,"[2]; human, plasma, oral, 100 mg, Cycle 1 Day 1, 50 mg capsule, cohort 2 × 50 mg, mean",51.4 µg·h/mL
same,Cmax,"[2]; human, plasma, oral, 100 mg, Cycle 1 Day 1, 50 mg capsule, cohort 2 × 50 mg, mean, read-out: Cmax",3 µg/mL
same,Tmax,"[2]; human, plasma, oral, 100 mg, Cycle 1 Day 1, 50 mg capsule, cohort 2 × 50 mg, median, read-out: Tmax",4 h
same,AUC,"[2]; human, plasma, oral, 100 mg, Cycle 2 Day 1, 50 mg capsule, cohort 2 × 50 mg, mean",366 µg·h/mL
